One molecule from patent US7223424B2, “Compositions and methods for prostate and kidney health and disorders, an herbal preparation” (Integrated Chinese Medicine Holdings, Ltd., priority 2001, dated 2007) can be followed below.

This experiment deals with person with enlarged prostate. The experiment in a line: Case report: person with enlarged prostate and frequent urination. Type of experiment: in vivo, human. As to conditions: prescribed for enlarged prostate. The text has this: Person diagnosed with having an enlarged prostate suffered from frequent-urination problems including increased daily frequency and reduced volume. They had the urge to urinate every two hours and the amount was only a few drops. Their symptoms were attributed to old age. […] They are able to urinate what they consider a normal amount of urine in a steady stream as opposed to the dribbling they experienced prior to taking the 9-herb composition. […] Because they are sleeping better, they have more energy throughout the day.

As to `CC(C)(C)NC(=O)[C@H]1CC[C@H]2[C@@H]3CC[C@H]4NC(=O)C=C[C@]4(C)[C@H]3CC[C@]12C` [PROSCAR], the urination problem result is “did not alleviate the urination problem”.
